Measurements reported in article PMC9949698, “Visible-Light-Controlled Histone Deacetylase Inhibitors for Targeted Cancer Therapy” (Journal of Medicinal Chemistry, 2023).
Read-outs that look alike come from different tables or passages of the source.

Key:
[1] = UV–vis spectra and optimal isomerization wavelengths; assay type: physicochemical; settings: for λcis (optimal wavelength trans to cis) / λtrans (optimal wavelength cis to trans): UV–vis at 25–50 μM in DMSO, Teleopto plates (Table 1)
Experimental: Ultraviolet–visible (UV–vis) spectra were recorded using a Tecan Spark 20M Multimode Microplate reader. Samples (200 μL of compound solution/well) were prepared at […] in DMSO. Samples were measured between 300 and 800 nm with 2 nm fixed intervals in 96-well transparent plates. Illumination at different wavelengths was performed for 2 min using 96-well LED array plates (LEDA Teleopto) placed below the samples. […] Potencies were measured using a Thorlabs PM100D power energy meter connected with a standard photodiode power sensor (S120VC).

[2] = E/Z composition under light or temperature conditions by HPLC; assay type: physicochemical
HeLa cells = assay: HeLa cell viability, MTS assay, dark or preillumination; assay type: cell-based; settings: for IC50: Homo sapiens, HeLa; for IC50(dark)/IC50(light): Table 5; for activity under dark and illumination conditions: in words
Experimental: We then proceeded to evaluate the effect of the compounds in a viability assay against HeLa cells.
HeLa, MCF7, and HT29 cells were maintained in adherent cultures in DMEM supplemented with 10% FBS. KG1 cells were maintained in a suspension culture in IMDM supplemented with 20% FBS.
Stock solutions of the compounds were heated to 60 or 80 °C to obtain solutions with the maximum amount of the trans isomer (dark). […] The solutions were then serially diluted with DMEM to give 20 times the desired final concentration, maintaining DMSO at 10%.
Cells were seeded in 96-well black flat bottom plates with a clear bottom at a density of 5 × 10^3 cells/well (HeLa) or 1 × 10^4 cells/well (MCF7, HT29, and KG1), in a volume of 95 μL.
Viability of HeLa, MCF7, and […] cells was determined with a CellTiter 96 assay (Promega), according to the manufacturer’s instructions. Briefly, 20 μL of CellTiter 96 reagent was added to each well, the plates were incubated at 37 °C for 2 h, and the absorbance at 490 nm was recorded. Viability is expressed as a percentage with respect to the nontreated cells.

human recombinant HDAC1 = target: T1, human recombinant HDAC1 (Homo sapiens, UniProt Q13547); assay: Fluorogenic assay with human recombinant HDAC1, dark or illumination; assay type: biochemical; settings: for relative activity of cis and trans forms: dark vs light, in words
T1 construct: purchased BPS Bioscience
Experimental: To study the inhibition of HDAC enzymes by the compounds, we used a fluorogenic assay with human recombinant HDAC1.[32] The enzyme was incubated with an acetylated substrate and each inhibitor for 1 h at room temperature, under either dark or light conditions. We opted for illumination throughout the incubation period to maintain the maximum proportion of cis under light conditions. […] Then, the deacetylated substrate generated a fluorescent coumarin after incubation of the mixture with trypsin at 37 °C for 20 min.
Stock solutions of the compounds were diluted to 1 mM in DMSO and then heated to 60 or 80 °C to obtain solutions with the maximum amount of the trans isomer (dark). […] The 1 mM solutions were then serially diluted with HDAC buffer to 10 times the desired concentration, maintaining DMSO at 10%.
In control wells without the compound, inhibitor, or enzyme, HDAC buffer was added instead. […] Then, 50 μL of the stop solution was added and the plates were incubated at 37 °C for 20 min in the dark. Fluorescence was measured at a λem of 460 nm and a λex of 380 nm. Enzyme activity is expressed as a percentage with respect to the nontreated cells, after subtracting the blank (well with no enzyme and no compound).

[3] = UV–vis spectra at 25–50 μM in DMSO (Table 1)
[4] = HPLC at isosbestic point (310–338 nm), 100 μM in DMSO after illumination with λcis (Table 1)
[5] = HPLC at isosbestic point (310–338 nm), 100 μM in DMSO after illumination with λtrans (Table 1)
[6] = preillumination 380 nm, 48 h, read-out: IC50 light (concentration that reduces cell viability by half)
[7] = supplementary CSV, read-out: HeLa MTS IC50 light
[8] = dark vs 365 or 380 nm (Table 2), fold
[9] = dark, 1 h at room temperature (Table 2), read-out: IC50 dark
[10] = illumination 365 or 380 nm, 1 h at room temperature (Table 2), read-out: IC50 light
[11] = UV–vis spectra at 25–100 μM in DMSO (Table 3)
[12] = dark (Table 4), read-out: IC50 dark
[13] = HPLC at isosbestic point (290–336 nm), 100 μM in DMSO after illumination with λcis (Table 3)
[14] = HPLC at isosbestic point (290–336 nm), 100 μM in DMSO after illumination with λtrans (Table 3)
[15] = supplementary CSV, read-out: HDAC1 IC50 dark
[16] = supplementary CSV, read-out: HDAC1 IC50 light
[17] = dark, 48 h, read-out: IC50 dark (concentration that reduces cell viability by half)
[18] = continuous illumination 550 nm (Table 4), read-out: IC50 light

T1 sequence (Q13547 whole entry): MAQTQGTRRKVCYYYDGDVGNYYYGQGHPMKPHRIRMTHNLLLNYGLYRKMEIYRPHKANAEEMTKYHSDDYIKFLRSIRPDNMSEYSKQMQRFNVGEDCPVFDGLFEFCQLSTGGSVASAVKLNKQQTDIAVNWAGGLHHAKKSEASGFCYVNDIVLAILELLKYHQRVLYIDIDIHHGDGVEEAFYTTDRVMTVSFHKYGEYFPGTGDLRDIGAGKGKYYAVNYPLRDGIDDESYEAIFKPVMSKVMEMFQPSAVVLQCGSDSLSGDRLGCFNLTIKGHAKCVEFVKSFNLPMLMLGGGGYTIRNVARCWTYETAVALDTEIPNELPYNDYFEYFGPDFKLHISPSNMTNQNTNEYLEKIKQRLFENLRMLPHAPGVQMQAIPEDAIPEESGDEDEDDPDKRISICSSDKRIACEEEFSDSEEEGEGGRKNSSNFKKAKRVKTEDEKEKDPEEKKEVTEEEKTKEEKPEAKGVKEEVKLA

| SMILES | λcis (optimal wavelength trans to cis) [1] | λmax trans [1, 3] | λcis [1, 11] | λmax trans [1, 11] | λtrans [1, 11] | IC50(dark)/IC50(light) (human recombinant HDAC1; Table 4) | IC50 (human recombinant HDAC1; [12]) | λmax cis [1, 11] | % cis at λcis [2, 13] | % trans at λtrans [2, 14] | also measured |
| --- | --- | --- | --- | --- | --- | --- | --- | --- | --- | --- | --- |
| COc1ccc(/N=N/c2ccc(C(=O)Nc3ccccc3N)cc2)cc1 [Compound 18, (E)-N-(2-Aminophenyl)-4-((4-methoxyphenyl)diazenyl)benzamide] | 380 nm | 364 nm | – | – | – | – | – | – | – | – | λtrans (optimal wavelength cis to trans) [1]: 550 nm; % cis at λcis [2, 4]: 82%; % trans at λtrans [2, 5]: 79%; IC50 (HeLa cells; [6]): ~19 µM; IC50 (HeLa cells; [7]): 19 µM; IC50(dark)/IC50(light) (HeLa cells): >5.3; IC50(dark)/IC50(light) (human recombinant HDAC1; [8]): 6; IC50 (human recombinant HDAC1; [9]): 1.2 µM; IC50 (human recombinant HDAC1; [10]): 0.2 µM |
| CN(C)c1cc(Cl)c(/N=N/c2c(Cl)cc(/C=C/C(=O)Nc3ccccc3N)cc2Cl)c(Cl)c1 [Compound 33b, (E)-N-(2-Aminophenyl)-3-(3,5-dichloro-4-((E)-(2,6-dichloro-4-(dimethylamino)phenyl)diazenyl)phenyl)acrylamide] | – | – | 420 nm | 412 nm | 550 nm | >2 | > 10 µM | – | – | – | activity under dark and illumination conditions (HeLa cells): inactive |
| CN(C)c1cc(F)c(/N=N/c2c(F)cc(/C=C/C(=O)Nc3ccccc3N)cc2F)c(F)c1 [Compound 33a, (E)-N-(2-Aminophenyl)-3-(4-((E)-(4-(dimethylamino)-2,6-difluorophenyl)diazenyl)-3,5-difluorophenyl)acrylamide] | – | – | 420 nm | 430 nm | 550 nm | >8.3 | – | – | – | – | activity under dark and illumination conditions (HeLa cells): inactive; activity at the highest tested concentration in the dark (human recombinant HDAC1; 10 μM, dark): no or little activity; IC50 under illumination, in words (human recombinant HDAC1; continuous illumination): low micromolar range |
| COc1ccc(/N=N/c2ccc(/C=C/C(=O)Nc3ccccc3N)cc2Cl)c(Cl)c1 [Compound 32e, (E)-N-(2-Aminophenyl)-3-(3-chloro-4-((E)-(2-chloro-4-methoxyphenyl)diazenyl)phenyl)acrylamide] | – | – | 380 nm | 396 nm | 455 nm | – | > 10 µM | 464 nm | 64% | 62% | IC50 (human recombinant HDAC1; continuous illumination 380 nm (Table 4), read-out: IC50 light): > 10 µM; IC50 (human recombinant HDAC1; [15]): > 10 µM; IC50 (human recombinant HDAC1; [16]): > 10 µM |
| COc1ccc(/N=N/c2ccc(C(=O)NO)cc2)cc1 [Compound 17, (E)-N-Hydroxy-4-((4-methoxyphenyl)diazenyl)benzamide] | 380 nm | 360 nm | – | – | – | – | – | – | – | – | λtrans (optimal wavelength cis to trans) [1]: 550 nm; % cis at λcis [2, 4]: 84%; % trans at λtrans [2, 5]: 92%; IC50 (HeLa cells; [17]): ~25 µM; IC50 (HeLa cells; [6]): ~25 µM; IC50 (HeLa cells; supplementary CSV, read-out: HeLa MTS IC50 dark): 25 µM; IC50 (HeLa cells; [7]): 25 µM; IC50(dark)/IC50(light) (HeLa cells): ≈1; IC50(dark)/IC50(light) (human recombinant HDAC1; [8]): 0.14; relative activity of cis and trans forms (human recombinant HDAC1): more active in the trans form than in the cis form; IC50 (human recombinant HDAC1; [9]): 0.42 µM; IC50 (human recombinant HDAC1; [10]): 2.9 µM |
| CN(C)c1ccc(/N=N/c2ccc(/C=C/C(=O)Nc3ccccc3N)cc2)cc1 [Compound 12, (E)-N-(2-Aminophenyl)-3-(4-((E)-(4-(dimethylamino)phenyl)diazenyl)phenyl)acrylamide] | 470 nm | 462 nm | – | – | – | – | – | – | – | – | – |
| COc1ccc(/N=N/c2ccc(CCC(=O)Nc3ccccc3N)cc2)cc1 [Compound 21, (E)-N-(2-Aminophenyl)-3-(4-((4-methoxyphenyl)diazenyl)phenyl)propanamide] | 380 nm | 354 nm | – | – | – | – | – | – | – | – | λtrans (optimal wavelength cis to trans) [1]: 550 nm; % cis at λcis [2, 4]: 87%; % trans at λtrans [2, 5]: 84%; IC50(dark)/IC50(light) (human recombinant HDAC1; [8]): >2.9; relative activity of cis and trans forms (human recombinant HDAC1): active only in the cis form; IC50 (human recombinant HDAC1; [9]): > 10 µM; IC50 (human recombinant HDAC1; [10]): 3.4 µM |
| COc1cc(Cl)c(/N=N/c2c(Cl)cc(C(=O)Nc3ccccc3N)cc2Cl)c(Cl)c1 [Compound 38b, (E)-N-(2-Aminophenyl)-3,5-dichloro-4-((2,6-dichloro-4-methoxyphenyl)diazenyl)benzamide] | – | – | 550 nm | 336 nm | 455 nm | – | – | 452 nm | 46% | 84% | – |
| COc1ccc(/N=N/c2ccc(/C=C/C(=O)Nc3ccccc3N)cc2F)c(F)c1 [Compound 32d, (E)-N-(2-Aminophenyl)-3-(3-fluoro-4-((E)-(2-fluoro-4-methoxyphenyl)diazenyl)phenyl)acrylamide] | – | – | 380 nm | 388 nm | 550 nm | ≈22 | ~10 µM | 448 nm | 67% | 59% | IC50 (human recombinant HDAC1; [15]): 10 µM |
| COc1cc(Cl)c(/N=N/c2c(Cl)cc(/C=C/C(=O)Nc3ccccc3N)cc2Cl)c(Cl)c1 [Compound 32b, (E)-N-(2-Aminophenyl)-3-(3,5-dichloro-4-((E)-(2,6-dichloro-4-methoxyphenyl)diazenyl)phenyl)acrylamide] | – | – | 550 nm | 338 nm | 455 nm | – | – | 452 nm | 45% | 88% | IC50 (human recombinant HDAC1; [18]): ~10 µM; IC50 (human recombinant HDAC1; [16]): 10 µM |
| COc1cc(F)c(/N=N/c2c(F)cc(/C=C/C(=O)NO)cc2F)c(F)c1 [Compound 39, (E)-3-(4-((E)-(2,6-Difluoro-4-methoxyphenyl)diazenyl)-3,5-difluorophenyl)-N-hydroxyacrylamide] | – | – | 550 nm | 358 nm | 455 nm | 2.6 | 0.14 µM | 438 nm | 72% | 83% | IC50 (HeLa cells; [17]): 6.7 µM; IC50 (HeLa cells; preillumination 550 nm, 48 h, read-out: IC50 light (concentration that reduces cell viability by half)): 13 µM; IC50(dark)/IC50(light) (HeLa cells): 0.52; IC50 (human recombinant HDAC1; [18]): 0.054 µM |
| CN(C)c1ccc(/N=N/c2ccc(C(=O)NO)cc2)cc1 [Compound 19, (E)-4-((4-(Dimethylamino)phenyl)diazenyl)-N-hydroxybenzamide] | – | 446 nm | – | – | – | – | – | – | – | – | – |
